Results on one compound are retold here after paper PMC10118179, “Tannic acid, an IL-1β-direct binding compound, ameliorates IL-1β-induced inflammation and cartilage degradation by hindering IL-1β-IL-1R1 interaction” (PLOS ONE, 2023).

The assay deals with T1, Interleukin-1β (IL-1β) (Homo sapiens, UniProt P01584).
T1 construct: gene IL1B; recombinant human IL-1β
The experiment in a line: SPR (Biacore T200, IL-1β immobilized on CM5 chip). It is filed as binding.

Structures are written as SMILES.

T1 sequence (P01584 117-269): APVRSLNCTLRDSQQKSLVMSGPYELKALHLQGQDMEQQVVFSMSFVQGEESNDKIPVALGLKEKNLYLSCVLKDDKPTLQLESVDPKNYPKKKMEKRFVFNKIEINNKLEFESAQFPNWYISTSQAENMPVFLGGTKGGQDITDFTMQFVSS

With `O=C(OC[C@H]1O[C@@H](OC(=O)c2cc(O)c(O)c(OC(=O)c3cc(O)c(O)c(O)c3)c2)[C@H](OC(=O)c2cc(O)c(O)c(OC(=O)c3cc(O)c(O)c(O)c3)c2)[C@@H](OC(=O)c2cc(O)c(O)c(OC(=O)c3cc(O)c(O)c(O)c3)c2)[C@@H]1OC(=O)c1cc(O)c(O)c(OC(=O)c2cc(O)c(O)c(O)c2)c1)c1cc(O)c(O)c(OC(=O)c2cc(O)c(O)c(O)c2)c1` [TA, Tannic acid], the Kd is 0.822 µM.
